This is an account of results in PubChem BioAssay (NCI).

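Assay format: 96-well plates, 48-hour exposure. GI50 marks 50% less growth. Definition used: TGI = concentration required for complete inhibition of growth.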 *1 amine or outer side, *2 acyl side, *3 side chain or, on linkers, in order; H or OH if unused. Where a SMILES comes first, the peptide text is derived from it. Bridges are numbered along the chain shown (N, C = ends). [ ]: non-standard residue; d: D form. The star is where a group is joined. Phe(3-Me) = Cc1cccc(C[C@H](N)C(=O)O)c1; NH(4-Cl-2-F-phenyl) = Fc1cc(Cl)ccc1N*; Pro(4R-Me) = C[C@H]1CN[C@H](C(=O)O)C1; Propanoyl(3-NMe2) = CN(C)CCC(=O)*; Hyp = O=C(O)[C@@H]1C[C@@H](O)CN1; aThr = C[C@H](O)[C@H](N)C(=O)O; Pip = O=C(O)[C@@H]1CCCCN1; CO = O=C([*:1])[*:2]

Some test systems named below: HCC-2998 colon; UACC-257 melanoma; K-562 leukemia; HOP-62 NSCLC; MDA-MB-435; NCI-H226 lung; SK-MEL-5 melanoma; A498 renal; SF-295 CNS; HT29 colon.
Common to all, as to experiment: NCI-60 cell line screen, 48 h

Take `CSc1nc2c(c(=O)[nH]1)C(c1ccc(Cl)cc1)C1=C(N2)/C(=C/c2ccc(Cl)cc2)CNC1` (stereo not drawn): the GI50 in the experiment with HCC-2998 colon was 1.96 µM; in the experiment with UACC-257 melanoma, 2.63 µM; with K-562 leukemia it was 3.09 µM; in the experiment with HOP-62 NSCLC, 2.38 µM; with MDA-MB-435 it was 1.79 µM; in the experiment on NCI-H226 lung, 1.62 µM. Moreover, the GI50 was 3.26 µM in the experiment with SK-MEL-5 melanoma, 2.68 µM with A498 renal, 1.96 µM with SF-295 CNS and 2.05 µM in the experiment on HT29 colon. For the same molecule, the TGI with HCC-2998 colon is 3.57 µM; in the experiment on UACC-257 melanoma it was 9.4 µM; in the experiment on K-562 leukemia, 15.1 µM; in the experiment with HOP-62 NSCLC, 5.11 µM; with MDA-MB-435, 3.69 µM; in the experiment on NCI-H226 lung it was 3.27 µM. For the same molecule, the TGI was found to be 12.4 µM in the experiment on SK-MEL-5 melanoma, 11.3 µM in the experiment on A498 renal, 4.43 µM with SF-295 CNS and 5.09 µM in the experiment with HT29 colon.
Consider `Cc1cccc(C[C@H](NC(=O)Nc2ccc(Cl)cc2F)C(=O)N[C@@H]2C(=O)N3C[C@H](OC(=O)CCN(C)C)C[C@H]3C(=O)N3CCCC[C@H]3C(=O)N[C@@H](C)C(=O)N3C[C@H](C)C[C@H]3C(=O)O[C@H]2C)c1` ({NH(4-Cl-2-F-phenyl)-CO}-[Phe(3-Me)][aThr][Hyp](Propanoyl(3-NMe2))[Pip]A[Pro(4R-Me)]; ester 2-C), for which the GI50 was 0.476 µM with HCC-2998 colon; 0.385 µM in the experiment with UACC-257 melanoma; 0.3 µM with K-562 leukemia; 0.536 µM in the experiment on HOP-62 NSCLC; 0.432 µM with MDA-MB-435; 0.45 µM in the experiment on NCI-H226 lung. Also, the GI50 was 0.46 µM in the experiment on SK-MEL-5 melanoma, 0.43 µM in the experiment with A498 renal, 0.426 µM in the experiment on SF-295 CNS and 0.526 µM in the experiment with HT29 colon. Besides, the TGI in the experiment with HCC-2998 colon was found to be 1.77 µM; in the experiment on UACC-257 melanoma, 2.14 µM; in the experiment on HOP-62 NSCLC it was 7.24 µM; in the experiment on MDA-MB-435, 1.65 µM; with NCI-H226 lung, 2.19 µM; with SK-MEL-5 melanoma, 1.62 µM. The figures for the TGI with A498 renal, with SF-295 CNS and in the experiment with HT29 colon were 3.29 µM, 2.15 µM and 2.82 µM, respectively.
As for `COc1cc2c3c(n(CCCCl)c(=O)c2cc1OC)-c1ccc(C#N)cc1C3=O`, the GI50 in the experiment with HCC-2998 colon was 4.49 µM; in the experiment with UACC-257 melanoma, 54.9 µM; with K-562 leukemia it was more than 100 µM; in the experiment on HOP-62 NSCLC, 14.7 µM; with MDA-MB-435, more than 100 µM; in the experiment on NCI-H226 lung it was 16.7 µM. Besides, the GI50 in the experiment on SK-MEL-5 melanoma was 90.9 µM; in the experiment with A498 renal, 16.1 µM; in the experiment on SF-295 CNS it was 5 µM; with HT29 colon, more than 100 µM. Moreover, the TGI is 25.9 µM in the experiment with HCC-2998 colon; more than 100 µM in the experiment with UACC-257 melanoma; more than 100 µM with K-562 leukemia; 30.2 µM in the experiment on HOP-62 NSCLC; more than 100 µM in the experiment with MDA-MB-435; 94.9 µM in the experiment with NCI-H226 lung. For the same molecule, the TGI in the experiment on SK-MEL-5 melanoma was more than 100 µM; with A498 renal, 58.8 µM; with SF-295 CNS it was 18.8 µM; in the experiment on HT29 colon, more than 100 µM.
Turning to `CC(=O)Nc1sc2c(c1-c1nc3ccccc3s1)CNC2`, the GI50 was 2.58 µM in the experiment on HCC-2998 colon; 5.41 µM in the experiment on UACC-257 melanoma; 2.23 µM in the experiment on K-562 leukemia; 2.38 µM with HOP-62 NSCLC; 3.48 µM with MDA-MB-435; 3.27 µM with NCI-H226 lung. For the same molecule, the GI50 in the experiment with SK-MEL-5 melanoma is 5.23 µM; in the experiment with A498 renal it was 7.4 µM; in the experiment with SF-295 CNS it was 2.25 µM; in the experiment with HT29 colon it was 3.76 µM. Also, the TGI with HCC-2998 colon was determined as 9.92 µM; in the experiment with UACC-257 melanoma, 14.8 µM; with K-562 leukemia, 11.1 µM; in the experiment with HOP-62 NSCLC it was 15.8 µM; in the experiment on MDA-MB-435, 12.5 µM; with NCI-H226 lung, 16.7 µM. Moreover, the TGI in the experiment with SK-MEL-5 melanoma was found to be 11.2 µM; in the experiment on A498 renal, 14.9 µM; in the experiment on SF-295 CNS, 9.93 µM; in the experiment on HT29 colon, 19.4 µM.
On to `COc1cc2c3c(c4c5ccccc5[nH]c4c2c(OC)c1OC)C(=O)N(CCN1CCCCC1)C3=O`, for which the GI50 in the experiment on HCC-2998 colon was 1.32 µM; in the experiment with UACC-257 melanoma, 2.79 µM; in the experiment on K-562 leukemia, 0.71 µM; in the experiment with HOP-62 NSCLC it was 0.721 µM; in the experiment on MDA-MB-435 it was 1.48 µM; with NCI-H226 lung, 1.08 µM. Besides, the GI50 in the experiment on SK-MEL-5 melanoma is 1.88 µM; with A498 renal, 1.35 µM; in the experiment with SF-295 CNS, 1.25 µM; in the experiment on HT29 colon it was 0.417 µM. Moreover, the TGI is 3.45 µM with HCC-2998 colon; 9.62 µM in the experiment on UACC-257 melanoma; 2.79 µM in the experiment with HOP-62 NSCLC; 3.27 µM in the experiment on MDA-MB-435; 4.57 µM with NCI-H226 lung; 5.31 µM with SK-MEL-5 melanoma. Also, the TGI was found to be 4.87 µM in the experiment with A498 renal, 3.13 µM in the experiment on SF-295 CNS and 1.88 µM in the experiment on HT29 colon.
Take `COc1cc(C2C(C#N)=C(N)Oc3cc(O)ccc32)cc(OC)c1OC` (stereo not drawn): the GI50 is 0.964 µM in the experiment with HCC-2998 colon; 0.401 µM in the experiment on UACC-257 melanoma; 0.435 µM with K-562 leukemia; 0.746 µM in the experiment with HOP-62 NSCLC; 0.147 µM with MDA-MB-435; 6.98 µM in the experiment on NCI-H226 lung. Besides, the GI50 in the experiment on SK-MEL-5 melanoma is 0.37 µM; in the experiment with A498 renal, 0.218 µM; in the experiment with SF-295 CNS, 0.374 µM; in the experiment on HT29 colon, 0.39 µM. Also, the TGI is more than 54.8 µM in the experiment on HCC-2998 colon; more than 100 µM in the experiment on UACC-257 melanoma; more than 100 µM in the experiment on K-562 leukemia; more than 100 µM in the experiment on HOP-62 NSCLC; 0.643 µM with MDA-MB-435; more than 100 µM in the experiment on NCI-H226 lung. Besides, the TGI with SK-MEL-5 melanoma was 26.7 µM; with A498 renal it was 1.45 µM; with SF-295 CNS, more than 100 µM; in the experiment on HT29 colon, 11.8 µM.
As for `C=C1N(C)c2ccc(Cl)cc2C1(C)C`, the GI50 is 6.25 µM in the experiment with HCC-2998 colon; 6.84 µM with UACC-257 melanoma; 3.75 µM with K-562 leukemia; 11.2 µM in the experiment with HOP-62 NSCLC; 3.7 µM in the experiment on MDA-MB-435; 16.4 µM in the experiment on NCI-H226 lung. Also, the GI50 in the experiment on SK-MEL-5 melanoma was 4.32 µM; with A498 renal, 11 µM; with SF-295 CNS, 4.17 µM; in the experiment on HT29 colon it was 3.24 µM. Further, the TGI in the experiment on HCC-2998 colon was more than 100 µM; with UACC-257 melanoma, 60.5 µM; in the experiment with K-562 leukemia, more than 100 µM; in the experiment with HOP-62 NSCLC it was 72.2 µM; in the experiment with MDA-MB-435, 23.5 µM; with NCI-H226 lung it was more than 100 µM. The TGI in the experiment with SK-MEL-5 melanoma came out at 15 µM; in the experiment with A498 renal it was 43.6 µM; in the experiment with SF-295 CNS, 38.5 µM; in the experiment on HT29 colon, 18.6 µM.
